Laboratory results as given in PMC4894417, “Quantitative High-Throughput Profiling of Environmental Chemicals and Drugs that Modulate Farnesoid X Receptor” (Scientific Reports, 2014).
“Also recorded” adds a separate entry of the source. Read-outs that look alike come from different tables or passages of the source. One block for each compound: values may come before it.

Legend:
FXR-LBD [1] = target: T1, FXR-LBD (Homo sapiens, UniProt Q96RI1); assay: FXR TR-FRET coactivator recruitment assay, agonist mode; assay type: biochemical; conditions: Table 1; coactivator SRC2-2 recruitment
T1 construct: The glutathione S-transferase (GST)-tagged FXR-LBD protein; purchased Life Technologies
T1 sequence (Q96RI1 262-486 limits assumed): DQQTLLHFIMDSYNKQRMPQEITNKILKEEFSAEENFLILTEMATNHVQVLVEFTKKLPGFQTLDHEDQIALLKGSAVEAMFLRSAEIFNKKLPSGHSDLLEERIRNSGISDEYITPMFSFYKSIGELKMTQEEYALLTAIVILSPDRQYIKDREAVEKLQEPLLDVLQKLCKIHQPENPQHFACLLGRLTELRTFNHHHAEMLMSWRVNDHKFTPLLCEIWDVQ

FXR-LBD [2] = target: T1, FXR-LBD; assay: FXR TR-FRET coactivator recruitment assay, antagonist mode (50 μM CDCA); assay type: biochemical
human FXR [3] = target: T2, human FXR (Homo sapiens, UniProt Q96RI1); assay: FXR-bla reporter gene assay, agonist mode (qHTS); conditions: for FXR-bla, agonist EC50: Table 1, confirmed compounds, mean ± SD of 3 experiments
T2 sequence (Q96RI1 with tags, fused parts or gaps limits assumed): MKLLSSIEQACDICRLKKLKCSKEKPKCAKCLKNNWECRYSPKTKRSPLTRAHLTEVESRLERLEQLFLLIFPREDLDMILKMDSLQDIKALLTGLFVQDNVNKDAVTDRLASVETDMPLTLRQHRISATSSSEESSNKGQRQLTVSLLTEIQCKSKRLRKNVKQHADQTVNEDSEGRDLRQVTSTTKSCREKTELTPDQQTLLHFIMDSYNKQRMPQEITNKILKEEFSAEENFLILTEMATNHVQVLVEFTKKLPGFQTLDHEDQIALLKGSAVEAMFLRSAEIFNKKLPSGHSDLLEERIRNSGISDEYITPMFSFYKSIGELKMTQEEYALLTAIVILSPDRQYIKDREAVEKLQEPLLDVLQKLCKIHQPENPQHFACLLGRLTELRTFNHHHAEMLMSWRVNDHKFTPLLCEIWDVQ

androgen receptor (AR) = androgen receptor (AR) (Homo sapiens, UniProt P10275); assay: AR-bla reporter gene assay (agonist and antagonist modes)
Chain of androgen receptor (AR) (P10275 with tags, fused parts or gaps limits assumed): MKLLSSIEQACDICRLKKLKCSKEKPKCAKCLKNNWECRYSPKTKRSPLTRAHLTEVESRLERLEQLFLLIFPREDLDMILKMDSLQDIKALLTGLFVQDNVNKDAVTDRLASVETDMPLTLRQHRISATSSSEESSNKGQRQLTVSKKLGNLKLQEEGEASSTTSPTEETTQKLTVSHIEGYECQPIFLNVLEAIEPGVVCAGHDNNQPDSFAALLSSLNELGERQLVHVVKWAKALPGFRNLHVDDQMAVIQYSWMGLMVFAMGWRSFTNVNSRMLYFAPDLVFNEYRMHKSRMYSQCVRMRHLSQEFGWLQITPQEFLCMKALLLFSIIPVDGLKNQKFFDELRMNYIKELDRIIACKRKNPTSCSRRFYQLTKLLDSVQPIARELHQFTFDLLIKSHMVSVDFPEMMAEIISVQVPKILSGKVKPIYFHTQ

[4] = target: estrogen receptor alpha (ERα) (Homo sapiens, UniProt P03372); assay: ERα-bla reporter gene assay (agonist and antagonist modes)
Chain of estrogen receptor alpha (ERα) (P03372 with tags, fused parts or gaps limits assumed): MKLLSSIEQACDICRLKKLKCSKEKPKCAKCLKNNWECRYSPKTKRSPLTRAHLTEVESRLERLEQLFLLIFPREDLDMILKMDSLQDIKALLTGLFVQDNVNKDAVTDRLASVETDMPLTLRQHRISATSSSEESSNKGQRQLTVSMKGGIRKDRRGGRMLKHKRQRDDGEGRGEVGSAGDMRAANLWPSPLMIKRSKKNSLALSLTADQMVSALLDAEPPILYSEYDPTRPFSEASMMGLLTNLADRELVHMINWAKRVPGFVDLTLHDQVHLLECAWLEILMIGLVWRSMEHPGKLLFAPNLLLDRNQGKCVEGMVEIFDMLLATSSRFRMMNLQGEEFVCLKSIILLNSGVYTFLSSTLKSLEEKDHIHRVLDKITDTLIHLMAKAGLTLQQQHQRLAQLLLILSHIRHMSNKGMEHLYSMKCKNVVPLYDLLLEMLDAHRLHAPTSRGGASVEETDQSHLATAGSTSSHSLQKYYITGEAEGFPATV

vitamin D receptor (VDR) = vitamin D receptor (VDR) (Homo sapiens, UniProt P11473); assay: VDR-bla reporter gene assay (agonist and antagonist modes)
Chain of vitamin D receptor (VDR) (P11473 with tags, fused parts or gaps limits assumed): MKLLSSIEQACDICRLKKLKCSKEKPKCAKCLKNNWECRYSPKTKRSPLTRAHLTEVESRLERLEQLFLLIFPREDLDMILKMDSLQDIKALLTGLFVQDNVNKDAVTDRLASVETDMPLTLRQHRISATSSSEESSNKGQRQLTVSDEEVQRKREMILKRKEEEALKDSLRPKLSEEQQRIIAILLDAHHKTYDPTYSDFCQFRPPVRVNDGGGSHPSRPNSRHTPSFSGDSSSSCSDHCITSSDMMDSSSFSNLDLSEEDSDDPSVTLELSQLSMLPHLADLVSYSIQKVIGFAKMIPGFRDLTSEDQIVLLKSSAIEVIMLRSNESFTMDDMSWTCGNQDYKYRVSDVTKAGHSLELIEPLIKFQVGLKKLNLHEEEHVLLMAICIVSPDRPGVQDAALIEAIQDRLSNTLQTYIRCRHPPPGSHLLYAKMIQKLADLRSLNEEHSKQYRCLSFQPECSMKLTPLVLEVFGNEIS

[5] = target: peroxisome proliferator-activated receptor gamma (PPARγ) (Homo sapiens, UniProt P37231); assay: PPARγ-bla reporter gene assay (agonist and antagonist modes)
Chain of peroxisome proliferator-activated receptor gamma (PPARγ) (P37231 with tags, fused parts or gaps limits assumed): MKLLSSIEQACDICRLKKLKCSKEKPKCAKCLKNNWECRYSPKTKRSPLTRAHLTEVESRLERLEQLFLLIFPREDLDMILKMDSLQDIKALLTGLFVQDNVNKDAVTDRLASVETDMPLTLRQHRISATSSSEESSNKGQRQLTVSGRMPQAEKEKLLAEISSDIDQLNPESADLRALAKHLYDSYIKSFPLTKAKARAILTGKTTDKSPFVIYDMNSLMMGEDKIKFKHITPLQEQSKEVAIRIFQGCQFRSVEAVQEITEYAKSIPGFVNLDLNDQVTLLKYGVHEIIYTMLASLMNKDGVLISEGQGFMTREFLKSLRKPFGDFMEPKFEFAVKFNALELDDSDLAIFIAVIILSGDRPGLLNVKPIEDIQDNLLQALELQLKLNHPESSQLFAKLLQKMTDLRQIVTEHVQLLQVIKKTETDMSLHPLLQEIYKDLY

[6] = tested on: FXR-UAS-bla HEK293T cells; assay: Cell viability assay (CellTiter Glo) in the same well as FXR-bla; conditions: for Cell viability IC50: Table 1, mean ± SD of 3 experiments
human FXR [7] = target: T2, human FXR; assay: FXR-bla reporter gene assay, antagonist mode (CDCA-induced transactivation); conditions: for FXR antagonist activity: FXR-bla assay, CDCA-induced; for FXR-bla, antagonist Efficacy: Table 1, inhibition as percent of positive control (guggulsterone), 50 μM CDCA
[8] = target: peroxisome proliferator-activated receptor delta (PPARδ) (Homo sapiens, UniProt Q03181); assay: PPARδ-bla reporter gene assay (agonist and antagonist modes)
Chain of peroxisome proliferator-activated receptor delta (PPARδ) (Q03181 with tags, fused parts or gaps limits assumed): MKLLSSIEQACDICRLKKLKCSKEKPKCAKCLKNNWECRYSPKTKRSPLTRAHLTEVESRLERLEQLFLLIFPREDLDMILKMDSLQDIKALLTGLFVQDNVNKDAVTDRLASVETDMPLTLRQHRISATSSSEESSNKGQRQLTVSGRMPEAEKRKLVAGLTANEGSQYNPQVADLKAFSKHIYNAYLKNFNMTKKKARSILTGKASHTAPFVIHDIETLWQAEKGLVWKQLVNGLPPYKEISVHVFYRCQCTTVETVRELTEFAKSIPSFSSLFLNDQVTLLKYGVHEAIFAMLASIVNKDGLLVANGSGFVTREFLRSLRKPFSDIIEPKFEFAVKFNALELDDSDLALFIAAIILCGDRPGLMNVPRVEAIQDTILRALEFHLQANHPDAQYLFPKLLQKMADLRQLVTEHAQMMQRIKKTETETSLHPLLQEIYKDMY

[9] = Cell viability assay (CellTiter Glo) in the same well as FXR-bla; conditions: human, FXR-UAS-bla HEK293T cells
[10] = Table 1, in the presence of 50 μM CDCA
[11] = Table S1, primary screening, 50 µM CDCA

- AR activity (androgen receptor (AR)): activated
- ERα activity [4]: activated
- PPARδ activity [8]: activated
SMILES: COC(=O)C1=C(C)NC(COC(N)=O)=C(C(=O)OC(C)C)C1c1cccc(Cl)c1Cl (stereo not shown) [Lemildipine]

- ERα activity [4]: mixed agonist/antagonist response
- VDR activity (vitamin D receptor (VDR)): antagonist response
- PPARδ activity [8]: antagonist response
- PPARγ activity [5]: antagonist response
SMILES: COc1cccc2c1C(=O)c1c(O)c3c(c(O)c1C2=O)C[C@@](O)(C(=O)CO)C[C@@H]3O[C@H]1C[C@H](N)[C@H](O)[C@H](C)O1 [Doxorubicin]
- Cell viability IC50 [6]: Inactive

- EC50 (human FXR [3]): 23.5 ± 10.1 µM
- FXR agonist activity (human FXR [3]; FXR-bla assay): activated
- FXR agonist mode Efficacy (human FXR [3]; Table S1, primary screening, CDCA 100%): 70 ± 41%
- AR activity (androgen receptor (AR)): activated
- ERα activity [4]: activated
- PPARδ activity [8]: activated
- IC50 (human FXR [7]): 32.3 ± 2.1 µM
- FXR antagonist mode Efficacy (human FXR [7]; [11]): 55 ± 20%
SMILES: CCOC(=O)C1=C(C)NC(C)=C(C(=O)OCC)C1c1ccccc1/C=C/C(=O)OC(C)(C)C [Lacidipine]
- IC50 at 16 h [9]: 54.5 ± 39.5 µM
- Cytotoxicity Efficacy ([6]; Table S1, primary screening): 56 ± 39%

- FXR agonist mode EC50 (human FXR [3]; Table S1, primary screening): Inactive
- ERα activity [4]: antagonized
- VDR activity (vitamin D receptor (VDR)): inhibiting β-lactamase expression
- PPARγ activity [5]: inhibiting β-lactamase expression
- IC50 (human FXR [7]): 42.3 ± 17.3 µM
- FXR antagonist mode Efficacy (human FXR [7]; [11]): 42 ± 7%
SMILES: COC1=CC(=O)C[C@@H](C)[C@]12Oc1c(Cl)c(OC)cc(OC)c1C2=O [Griseofulvin]
- Cytotoxicity IC50 ([6]; Table S1, primary screening): Inactive
- FXR antagonist activity (human FXR [7]): antagonistic effects; also recorded: inhibiting β-lactamase expression

- FXR TR-FRET, agonist EC50 (FXR-LBD [1]): Inactive
- FXR TR-FRET, antagonist IC50 (FXR-LBD [2]; [10]): Inactive
- FXR-bla, agonist EC50 (human FXR [3]): Inactive
- AR activity (androgen receptor (AR)): inhibiting β-lactamase expression
- VDR activity (vitamin D receptor (VDR)): inhibiting β-lactamase expression
- PPARγ activity [5]: inhibiting β-lactamase expression
- IC50 (human FXR [7]): 2.19 ± 1.51 µM
- FXR antagonist activity (human FXR [7]): inhibiting β-lactamase expression
- FXR-bla, antagonist Efficacy (human FXR [7]): 70 ± 9%
- FXR antagonist Efficacy (human FXR [7]; Table S3, 50 µM CDCA): 66 ± 12%
SMILES: COC(=O)Nc1nc2ccc(C(=O)c3ccccc3)cc2[nH]1 [Mebendazole]
- Cell viability IC50 [6]: Inactive

- PPARδ activity [8]: activated
SMILES: CCOC(=O)C1=C(C)NC(C)=C(C(=O)OC)C1c1cccc(Cl)c1Cl (stereo not shown) [Felodipine]

- FXR TR-FRET, agonist EC50 (FXR-LBD [1]): Inactive
- FXR TR-FRET, antagonist Efficacy (FXR-LBD [2]; [10]): 162 ± 41%
- EC50 (human FXR [3]): 1.37 ± 0.38 µM
- FXR-bla, agonist Efficacy (human FXR [3]; Table 1, activation as percent of positive control (CDCA 100%), mean ± SD of 3): 42 ± 16%
- FXR agonist EC50 (human FXR [3]; Table S3, FXR-active drugs): Inactive
- AR activity (androgen receptor (AR)): mixed agonist/antagonist response
- ERα activity [4]: mixed agonist/antagonist response
- VDR activity (vitamin D receptor (VDR)): antagonist response
- PPARδ activity [8]: antagonist response
- PPARγ activity [5]: antagonist response
- FXR-bla, antagonist Efficacy (human FXR [7]): 107 ± 3%
- FXR antagonist Efficacy (human FXR [7]; Table S3, 50 µM CDCA): 105 ± 11%
SMILES: CC(=O)[C@]1(O)Cc2c(O)c3c(c(O)c2[C@@H](O[C@H]2C[C@H](N)[C@H](O)[C@H](C)O2)C1)C(=O)c1ccccc1C3=O [Idarubicin]
- Cell viability IC50 [6]: Inactive

- FXR agonist mode EC50 (human FXR [3]; Table S1, primary screening): Inactive
- IC50 (human FXR [7]; FXR antagonist mode IC50, Table S1, primary screening, 50 µM CDCA): 0.44 ± 0.21 µM
- FXR antagonist activity (human FXR [7]): inconclusive antagonists
SMILES: CC(C)C[C@H](NC(=O)[C@H](Cc1ccccc1)NC(=O)c1cnccn1)B(O)O [Bortezomib]
- IC50 at 16 h [9]: 0.22 ± 0.1 µM
- Cytotoxicity Efficacy ([6]; Table S1, primary screening): 57 ± 2%

More lines, now with the values behind:

SMILES: COc1cc2c(c(OC)c1OC)-c1ccc(OC)c(=O)cc1[C@@H](NC(C)=O)CC2 [Colchicine]
- FXR TR-FRET, agonist EC50 (FXR-LBD [1]): Inactive
- IC50 (FXR-LBD [2]): 0.03 µM
- FXR-bla, agonist EC50 (human FXR [3]): Inactive
- AR activity (androgen receptor (AR)): inhibiting β-lactamase expression
- ERα activity [4]: antagonized
- VDR activity (vitamin D receptor (VDR)): inhibiting β-lactamase expression
- PPARγ activity [5]: inhibiting β-lactamase expression
- Cell viability IC50 [6]: Inactive
- FXR antagonist Efficacy (human FXR [7]): 55 ± 11%
- FXR antagonist activity (human FXR [7]): inhibiting β-lactamase expression
- IC50 (human FXR [7]; FXR-bla, antagonist IC50): 0.03 µM
- IC50 (human FXR [7]; IC50, FXR-bla antagonist mode, Figure 4, primary screen): 0.011 µM

SMILES: COc1cc([C@@H]2c3cc4c(cc3[C@H](O)[C@H]3COC(=O)[C@H]23)OCO4)cc(OC)c1OC [Podofilox]
- AR activity (androgen receptor (AR)): inhibiting β-lactamase expression
- VDR activity (vitamin D receptor (VDR)): inhibiting β-lactamase expression
- PPARγ activity [5]: inhibiting β-lactamase expression

SMILES: COc1cccc2c1C(=O)c1c(O)c3c(c(O)c1C2=O)C[C@@](O)(C(C)=O)C[C@@H]3O[C@H]1C[C@H](N)[C@H](O)[C@H](C)O1 [Daunorubicin]
- VDR activity (vitamin D receptor (VDR)): antagonist response
- PPARδ activity [8]: antagonist response
- PPARγ activity [5]: antagonist response

SMILES: COC(=O)Nc1nc2ccccc2[nH]1 [Carbendazole]
- AR activity (androgen receptor (AR)): inhibiting β-lactamase expression
- VDR activity (vitamin D receptor (VDR)): inhibiting β-lactamase expression
- PPARγ activity [5]: inhibiting β-lactamase expression
- Cytotoxicity IC50 ([6]; Table S1, primary screening): Inactive

SMILES: CCc1c(C(=O)NN2CCCCC2)nn(-c2ccc(Cl)cc2Cl)c1-c1ccc(Br)cc1 [Surinabant]
- FXR TR-FRET, agonist EC50 (FXR-LBD [1]): Inactive
- FXR TR-FRET, antagonist Efficacy (FXR-LBD [2]; [10]): 73 ± 1%
- FXR-bla, agonist EC50 (human FXR [3]): Inactive
- EC50 at 16 h [9]: 34.1 ± 13.5 µM
- IC50 ([6]; Homo sapiens, HEK-293T, read-out: Cell viability IC50): 17.1 ± 1.12 µM
- Cytotoxicity Efficacy ([6]; Table S3): 66 ± 17%
- IC50 (human FXR [7]): 1.84 ± 0.77 µM
- FXR-bla, antagonist Efficacy (human FXR [7]): 86 ± 25%
- FXR antagonist Efficacy (human FXR [7]; Table S3, 50 µM CDCA): 96 ± 16%

SMILES: COc1cccc2c1C(=O)c1c(O)c3c(c(O)c1C2=O)C[C@@](O)(C(=O)CO)C[C@@H]3O[C@H]1C[C@H](N)[C@H](O[C@@H]2CCCCO2)[C@H](C)O1 [Pirarubicin]
- EC50 (human FXR [3]): 16.9 ± 11 µM
- FXR agonist mode Efficacy (human FXR [3]): 20 ± 9%
- AR activity (androgen receptor (AR)): mixed agonist/antagonist response
- ERα activity [4]: mixed agonist/antagonist response
- VDR activity (vitamin D receptor (VDR)): antagonist response
- PPARδ activity [8]: antagonist response
- PPARγ activity [5]: antagonist response
- Cytotoxicity IC50 ([6]; Table S1, primary screening): Inactive
- FXR antagonist mode Efficacy (human FXR [7]): 60 ± 23%
- IC50 (human FXR [7]; FXR antagonist mode IC50): 21.3 ± 15.6 µM
